Source: patent publication US20260286306A1, “Culture Medium, Production Method, and Cell Preparation19155704” (National University Corporation Kumamoto University, priority 2023, published 2026)

Assays:
[1] = test system: EPCR High cell group (hematopoietic stem cells); assay: ex vivo culture of mouse EPCR High cell group for 4 days, flow cytometry and cell count; type: cell-based; conditions: for number of cells compared with the control: 4 days culture, FIG. 7(B); for proportion of EPCR High in hematopoietic stem cells (EPCR High phenotype): flow cytometry
Source text: The expression of c-kit and EPCR in a hematopoietic stem cell fraction (lineage: CD150+, CD48−) isolated from a mouse by using flow cytometry was checked. Among the c-kit-positive and EPCR-positive cells, a cell group of the top 30% of the EPCR-positive cells was defined as an EPCR High cell group, and a cell group of the bottom 30% of the EPCR-positive cells was defined as an EPCR Low cell group (see FIG. 1). Each cell group was transplanted into a recipient mouse, and 20 weeks later, the proportion of cells derived from the transplanted stem cells was examined in the peripheral blood (PB). In addition, at the same time, the proportion of cells derived from the transplanted stem cells was examined in the hematopoietic stem cell fraction (L-ESLAM) in the bone marrow after 20 weeks of the transplantation. The experiment was carried out twice.
As shown in FIG. 5(A), α-ketoglutaric acid (αKG), which is an intermediate metabolite of the TCA cycle, is also produced from glutamic acid or the like, and then it is supplied to the TCA cycle. In addition, in the production of a-ketoglutaric acid from glutamic acid, two pathways of a transaminase pathway and a glutamate dehydrogenase pathway are used (see FIG. 5(B)). Therefore, the proportion of EPCR High in hematopoietic stem cells was determined in a case where the EPCR High cell group was cultured for 4 days by adding each of an inhibitor R162 (30 μM) of glutamate dehydrogenase and an inhibitor aminooxyacetic acid (AOA) (50 μM) of transaminase to the culture medium, and in a case where the content of […], which is the source of glutamic acid synthesis, was set to 1/100 (0.02 mM) in FIG. 5(A) (Low Neu.).
The above-described mouse EPCR High cell group was cultured for 4 days by adding EGCG (50 μM), which is another glutamate dehydrogenase inhibitor, to a culture medium.

[2] = test system: recipient mouse; assay: transplantation of cultured cell groups into a recipient mouse, proportion of donor-derived cells; type: in vivo
Method: Mouse EPCR High cells were cultured for 4 days under the normal culture conditions or in the presence of R162, and 50 cells of each of an EPCR High cell group (Control) generated under the normal culture conditions, an EPCR Low cell group (Control), and an EPCR High cell group (R162) amplified in the presence of R162 were aliquoted and then transplanted into a recipient mouse. Then, after 4 weeks and 12 weeks, the proportion of cells derived from donor cells in the peripheral blood was examined.
Further, the EPCR High cells were cultured for 4 days under the normal culture conditions and cultured for 4 days in the presence of R162, and the EPCR High cell group generated under the normal culture conditions, the EPCR Low cell group, and the EPCR High cell group (R162) amplified in the presence of R162 were each transplanted into a recipient mouse. Then, 20 weeks later, the proportion of cells derived from donor cells was examined in the peripheral blood and the hematopoietic stem cell fraction in the bone marrow (L-ESLAM (BM)).

[3] = test system: Human CD34+ bone marrow cells; assay: culture of human CD34+ bone marrow cells for 7 days, total cell number and flow cytometry; type: cell-based; conditions: R162 30 μM
Method: Human CD34^+ bone marrow cells (10,000 cells) were cultured for 7 days under normal culture conditions or in the presence of a glutamate dehydrogenase inhibitor R162 (30 μM), and then the total number of cells was analyzed. Then, the proportion of hematopoietic stem cells (lineage: CD34+CD38−CD90+cells) was analyzed using a flow cytometer, and from the results, the number of stem cells was estimated. FIG. 13 and FIG. 14 show the results. As shown in FIG. 14(A), it has been confirmed that the total number of cells is not changed by the presence of R162 as compared with the control, whereas as shown in FIG. 14(B), the ratio of stem cells after culturing is increased by the presence of R162.
The culture medium used for the ex vivo culture of human CD34+ bone marrow cells is a culture medium obtained by adding, to the RPMI medium, L-Alanin (4.45 mg/L), Zinc Sulfate Heptahydrate (0.432 mg/L), Cupric Sulfate Pentahydrate (0.0013 mg/L), Ferric Nitrate Nonahydrate (0.05 mg/L), Ferrous Sulfate Heptahydrate (0.417 mg/L), Linoleic acid (0.042 mg/L), Hypoxanthine (2.1 mg/L), Putrescine+2HCL (0.081 mg/L), Thioctic Acid (0.105 mg/L), Thymidine (0.365 mg/L), Sodium Pyruvate (55 mg/L), HEPES (1 mM), a penicillin-streptomycin mixed solution (Nacalai Tesque, Inc.: 26253-84) (1/100 capacity), Insulin-Transferrin-Selenium-Ethanolamine (Thermo Fisher Scientific, Inc.: 51500056) (1/100 capacity), and AlbuMAXtm I Lipid-Rich BSA (Thermo Fisher Scientific, Inc.: 11020021) (2%).

NOCC(=O)O [AOA, aminooxyacetic acid]
number of cells compared with the control ([1]; AOA 50 μM): significantly reduced

O=C(O[C@@H]1Cc2c(O)cc(O)cc2O[C@@H]1c1cc(O)c(O)c(O)c1)c1cc(O)c(O)c(O)c1 [EGCG, epigallo catechin-3-gallate]
proportion of EPCR High in hematopoietic stem cells (EPCR High phenotype) ([1]; EGCG 50 μM in culture medium, 4 days, FIG. 15): phenotype of EPCR High is maintained

C=CCc1ccc2c(c1O)C(=O)c1ccccc1C2=O [R162, 2-allyl-1-hydroxy-9,10-anthraquinone]
proportion of cells derived from donor cells in the peripheral blood (ability to reconstruct hematopoietic tissue) ([2]; 50 EPCR High cells amplified 4 days in the presence of R162, transplanted, 4 weeks and 12 weeks, FIG. 8): high ability to reconstruct hematopoietic tissue, which is equivalent to the EPCR High cell group (Control)
proportion of cells derived from donor cells in peripheral blood and bone marrow hematopoietic stem cell fraction (L-ESLAM (BM)) ([2]; EPCR High cells amplified 4 days in the presence of R162, transplanted, 20 weeks, vs EPCR High and EPCR Low (Control), FIG. 12): high ability to maintain the reconstructed hematopoiesis for a longer period of time
total number of cells compared with the control ([3]; 7 days, 10,000 cells seeded, FIG. 14(A)): not changed
ratio of stem cells (CD34+CD38−CD90+ cells) after culturing ([3]; 7 days, flow cytometer, FIG. 14(B)): increased
number of stem cells compared with normal culture conditions ([3]; 7 days, estimated from total cell number and stem cell proportion): number of stem cells is increased
fold induction at 30 µM ([1]; Mus musculus, Hematopoietic stem cell, 96 h, culture in the presence of R162 (30 μM), 4 days, read-out: increase in number of cells having the EPCR High phenotype compared with normal culture conditions): ~2
proportion of EPCR High in hematopoietic stem cells (EPCR High phenotype) ([1]; R162 30 μM in culture medium, 4 days, FIG. 6/7(A)): phenotype of EPCR High is maintained
number of cells compared with the control ([1]; R162 30 μM): about the same level as that of the control
